These results are taken from ChEMBL document CHEMBL1201862, “PubChem BioAssay data set” (2004).

Common to all, as to experiment: NCI anticancer screen, dose series, 48 h
Experiment [1] has as its system 786-0.
Experiment [2] concerns ACHN.
Experiment [3] has as its system CAKI-1.
Experiment [4] concerns CCRF-CEM.
Experiment [5] deals with HCT-116.
Experiment [6] concerns HCT-15.
Experiment [7] relates to K562.
In experiment [8] the test system is KM12.
For experiment [9], the system named is M14.
In experiment [10] the test system is MDA-MB-435.
Experiment [11] relates to MOLT-4.
In experiment [12] the test system is Malme-3M.
The test system of experiment [13] is OVCAR-4.
For experiment [14], the system named is RPMI-8226.
Experiment [15] relates to SF-295.
The test system of experiment [16] is TK-10.
For experiment [17], the system named is U-251.
Experiment [18] deals with UACC-257.
The subject of experiment [19] is NCI-H522.
The subject of experiment [20] is SR.

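Results reflect a 48-hour exposure of cells in 96-well plates to compound at five concentrations. GI50 = concentration required for 50% inhibition of growth.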 Activity calls are given as the source filed them. Rule as the data show it: active = GI50 up to about 1.1 µM and inactive = higher.

Turning to `O=C1NC(=S)NC(=O)C1=Cc1ccc(-c2ccccc2)cc1`, the GI50 was > 100 µM (inactive) in experiment [1]; > 100 µM (inactive) in experiment [2]; > 100 µM (inactive) in experiment [3]; 36.3 µM (inactive) in experiment [4]; 51.3 µM (inactive) in experiment [5]; above 100 µM in [6]. Also, the GI50 in [7] was 31.6 µM (inactive); in [8], > 100 µM (inactive); in experiment [9] it was > 100 µM (inactive); in [10] it was > 100 µM (inactive); in experiment [11], 24.7 µM (inactive); in [12], > 100 µM (inactive). Besides, the GI50 in [13] is > 100 µM (inactive); in experiment [14] it was 66.2 µM (inactive); in experiment [15] it was > 100 µM (inactive); in experiment [16], > 100 µM (inactive); in experiment [17], 54.1 µM (inactive); in experiment [18], > 100 µM (inactive).
With `c1ccc(N2CCN(CCCN3CCc4c([nH]c5ccccc45)C3c3cccnc3)CC2)cc1` (stereo unspecified), the GI50 in experiment [1] was 33.9 µM (inactive); in experiment [2], > 92.9 µM (inactive); in experiment [3] it was > 100 µM (inactive); in experiment [4], 88.3 µM (inactive); in experiment [5], 35.2 µM (inactive); in [6], 56 µM. In addition, the GI50 in experiment [7] is 23.6 µM (inactive); in [8], 51.4 µM (inactive); in experiment [9], 20.2 µM (inactive); in [11], 30.4 µM (inactive); in [12] it was > 46.9 µM (inactive); in experiment [19], 86.9 µM (inactive). The GI50 in experiment [13] is 98.9 µM (inactive); in experiment [14], 76.2 µM (inactive); in [15], > 100 µM (inactive); in experiment [20], 27 µM (inactive); in experiment [16], 23.7 µM (inactive); in [17], 19.1 µM (inactive). Besides, the GI50 in experiment [18] was 24.6 µM (inactive).
For `CCc1cccc(CC)c1NC1=CC(=O)C(=O)c2ccccc21`, the GI50 is 18.9 µM (inactive) in experiment [1]; 13.1 µM (inactive) in experiment [2]; 18.9 µM (inactive) in [3]; > 100 µM (inactive) in experiment [4]; 18.4 µM (inactive) in experiment [5]; 10.3 µM in experiment [6]. Further, the GI50 is 59.4 µM (inactive) in experiment [7]; 15.4 µM (inactive) in experiment [8]; 13.5 µM (inactive) in experiment [9]; 45.7 µM (inactive) in experiment [11]; 17.9 µM (inactive) in experiment [12]; 14.1 µM (inactive) in experiment [19]. The GI50 in experiment [13] is 13.7 µM (inactive); in [14] it was 40.2 µM (inactive); in [15], 13 µM (inactive); in experiment [20], 29.9 µM (inactive); in experiment [16], 23.9 µM (inactive); in experiment [17], 15.3 µM (inactive). For the same molecule, the GI50 in experiment [18] was 15 µM (inactive).
In the case of `COC(=O)CCC(=O)CC(=O)C1=NS(=O)(=O)c2nc(S(N)(=O)=O)c(Cl)cc2N1`, the GI50 in [1] is > 10 µM (inactive); in [2] it was > 100 µM (inactive); in [3], > 100 µM (inactive); in [4], 45 µM (inactive); in experiment [5], > 100 µM (inactive); in experiment [6], above 100 µM. Besides, the GI50 in experiment [7] was > 100 µM (inactive); in experiment [8], > 100 µM (inactive); in experiment [9], > 100 µM (inactive); in [11], > 100 µM (inactive); in experiment [12] it was > 100 µM (inactive); in [19], 64.3 µM (inactive). Also, the GI50 in experiment [13], in experiment [14], in experiment [15], in [20], in experiment [16] and in experiment [17] was > 100 µM (inactive) in each case. For the same molecule, the GI50 in [18] was > 100 µM (inactive).
Turning to `CC(C)(C)c1cc(Cc2ccc(S(C)(=O)=O)cc2)c(O)c(C(C)(C)C)c1`, the GI50 in experiment [1] was 16.1 µM (inactive); in experiment [2], 13.7 µM (inactive); in [3], 16.2 µM (inactive); in [4] it was 12.3 µM (inactive); in experiment [5], 14 µM (inactive); in experiment [6], 16.9 µM. Moreover, the GI50 in experiment [7] was 13.8 µM (inactive); in experiment [8], 16.4 µM (inactive); in [9], 15.4 µM (inactive); in experiment [11], 12.3 µM (inactive); in experiment [12], 18.1 µM (inactive); in [19], 12.1 µM (inactive). The GI50 is 14.4 µM (inactive) in experiment [13]; 10.8 µM (inactive) in experiment [14]; 13.2 µM (inactive) in experiment [15]; 13.2 µM (inactive) in [20]; 17.9 µM (inactive) in experiment [16]; 15.1 µM (inactive) in [17]. Besides, in [18], the GI50 was 17 µM (inactive).
For `CC1(C)OCC=CCO1`, the GI50 in experiment [2] was > 100 µM (inactive); in experiment [3], > 100 µM (inactive); in experiment [4] it was 62.5 µM (inactive); in experiment [5], > 100 µM (inactive); in experiment [7] it was 67.8 µM (inactive); in experiment [8], > 100 µM (inactive). Also, the GI50 in [9] is > 100 µM (inactive); in [10], > 100 µM (inactive); in experiment [11] it was > 100 µM (inactive); in experiment [12], > 100 µM (inactive); in [19], 69.8 µM (inactive); in experiment [13], > 100 µM (inactive). Moreover, the GI50 in experiment [14], in experiment [15], in [16], in experiment [17] and in experiment [18] was > 100 µM (inactive) throughout.
With `CCOC(=O)C(C(=O)OCC)c1ccc([N+](=O)[O-])o1`, the GI50 was 6.64 µM (inactive) in experiment [1]; 10.2 µM (inactive) in experiment [2]; 6.18 µM (inactive) in experiment [3]; 2.53 µM (inactive) in [4]; 15.6 µM (inactive) in experiment [5]; 17.3 µM in [6]. For the same molecule, the GI50 was 3.43 µM (inactive) in experiment [7]; 17.5 µM (inactive) in experiment [8]; 13.7 µM (inactive) in experiment [9]; 3.08 µM (inactive) in experiment [11]; 6.73 µM (inactive) in experiment [12]; 1.74 µM (inactive) in experiment [19]. The GI50 in [13] is 17.3 µM (inactive); in experiment [14], 6.87 µM (inactive); in experiment [15] it was 20.6 µM (inactive); in [20] it was 6.93 µM (inactive); in experiment [16], 16.9 µM (inactive); in experiment [17], 18.7 µM (inactive). The GI50 in experiment [18] was 14.7 µM (inactive).
With `CC(C)COC(=O)N1N=NC2C3CC(=O)C(O3)C21` (stereo unspecified), the GI50 in experiment [1] was > 100 µM (inactive); in experiment [2], > 100 µM (inactive); in experiment [3], > 100 µM (inactive); in experiment [4], > 100 µM (inactive); in experiment [5] it was > 100 µM (inactive); in experiment [6], above 100 µM. Further, the GI50 in experiment [7], in [8], in experiment [9], in experiment [11], in experiment [12] and in experiment [19] was > 100 µM (inactive) in each case. Moreover, the GI50 in experiment [13] was > 100 µM (inactive); in experiment [14] it was > 100 µM (inactive); in experiment [15] it was > 100 µM (inactive); in experiment [20], > 100 µM (inactive); in experiment [16] it was 22.9 µM (inactive); in experiment [17] it was > 100 µM (inactive). Further, in experiment [18], the GI50 is > 100 µM (inactive).
For `COC(=O)C1=CC2OC1(C)CCC2=O` (stereo unspecified), the GI50 in experiment [1] is > 100 µM (inactive); in [2], > 100 µM (inactive); in [3], 63 µM (inactive); in experiment [4] it was 35.1 µM (inactive); in [5], 85.3 µM (inactive); in experiment [6], 67.9 µM. For the same molecule, the GI50 is 62.4 µM (inactive) in experiment [7]; > 100 µM (inactive) in experiment [8]; 44.6 µM (inactive) in [9]; 45.9 µM (inactive) in experiment [11]; 71.4 µM (inactive) in experiment [12]; 48.1 µM (inactive) in experiment [19]. In addition, the GI50 in experiment [13] was > 100 µM (inactive); in [14] it was 47.6 µM (inactive); in experiment [15], > 100 µM (inactive); in experiment [20] it was 45.9 µM (inactive); in experiment [16], > 100 µM (inactive); in [17], > 100 µM (inactive). In [18], the GI50 was > 100 µM (inactive).
On to `S=C1C=C(c2ccccc2)Sc2ccccc2N1`, for which the GI50 in experiment [1] was > 100 µM (inactive); in experiment [2], > 100 µM (inactive); in experiment [3], > 100 µM (inactive); in experiment [4], 67.5 µM (inactive); in experiment [5] it was 79.8 µM (inactive); in [6], above 100 µM. The GI50 in [7] is > 100 µM (inactive); in experiment [8], > 100 µM (inactive); in experiment [9] it was 57.9 µM (inactive); in [11], 30.4 µM (inactive); in [12], > 100 µM (inactive); in experiment [19], 44.5 µM (inactive). For the same molecule, the GI50 in experiment [13], in [14], in experiment [15], in experiment [20], in experiment [16] and in [17] was > 100 µM (inactive) in each case. For the same molecule, the GI50 in experiment [18] is 48.6 µM (inactive).
For the molecule `O=C1Cc2ccccc2N1c1c(Cl)cccc1Cl`, the GI50 in [1] was 92.5 µM (inactive); in experiment [2] it was 70.1 µM (inactive); in experiment [3], 61.1 µM (inactive); in experiment [4], 32.9 µM (inactive); in experiment [5], 45.6 µM (inactive); in experiment [6], 46.9 µM. Besides, the GI50 in experiment [7] is 21.3 µM (inactive); in [8], 31.8 µM (inactive); in experiment [9], 71 µM (inactive); in experiment [11], 22.6 µM (inactive); in experiment [12], 56.8 µM (inactive); in experiment [19], 24.6 µM (inactive). The GI50 in experiment [13] was 48 µM (inactive); in experiment [14], 19.6 µM (inactive); in experiment [15], 38.4 µM (inactive); in [20], 25.4 µM (inactive); in experiment [16], 98.4 µM (inactive); in [17], 63.7 µM (inactive). Further, the GI50 in experiment [18] was 39.6 µM (inactive).
